Where two headings read alike, the source gives them in different places.
How the values were obtained:
[1] = Aggregation study: UV-Vis spectra before and after 0.22 μm filtration; type: physicochemical; conditions: DMSO stock diluted with saline, 4 hours at room temperature, 0.22 μm disc filter
Description: The drug concentration was […]. The sample was left for 4 hours at room temperature. UV-visible absorbance spectra of the solution before and after filtration (employing a 0.22 μm disc filter) were measured.
The formulations were placed in an ultrasonic bath at elevated temperature (40° C.) for 6 hours. After cooling to room temperature, UV-Vis spectra were measured for unfiltered solutions as well as for the solutions after filtration using a 0.22 μm disc filter.

[2] = Dissolved fraction in gamma-cyclodextrin solution, filtered vs unfiltered absorbance at 300 nm; type: physicochemical; conditions: for bazedoxifene acetate dissolved: sonicated at 40° C. for 6 hours
Description: 1.2 mL of a 40 mg/mL solution of GCD in distilled water was added into the microtube. The solution was sonicated at 40° C. for 6 hours. […] The concentration of GCD remained the same in all solutions, specifically 40 mg/mL.
Aliquots of the solutions were filtered through a 0.22 μm disc filter.
1.5 mL of a 40 mg/mL solution of gamma-cyclodextrin in saline was added into the microtube. The solution was sonicated at 40° C. for 6 hours. […] The concentration of gamma-cyclodextrin remained the same in all solutions, specifically 40 mg/mL.
1.2 mL of a 40 mg/mL solution of GCD in phosphate-buffered saline was added into the microtube. The solution was sonicated at 40° C. for 6 hours. […] The concentration of GCD remained the same in all solutions, specifically. 40 mg/ml.
The resulting mixture was ground for 20 minutes at a set grinding speed of 1000 rpm and a grinding temperature of 37° C.
20 mg of the ground mixture was weighed into a microtube and combined with 0.5 mL distilled water. The sample was then sonicated for 5 minutes at 45° C.
An aliquot of the sonicated solution was filtered through a 0.22 μm disc filter.

[3] = rats, bazedoxifene acetate in SBECD
[4] = healthy volunteers, inhalation of BAZE-X1 1.13 mg
clinical = conditions: both, human, in vivo, inhaled or intranasal, 1.13 mg

For `Cc1c(-c2ccc(O)cc2)n(Cc2ccc(OCCN3CCCCCC3)cc2)c2ccc(O)cc12` [bazedoxifene acetate], the “absorbance features of the drug after filtration (aggregation)” value [1] was “sharp decrease in absorbance features”, the bazedoxifene acetate dissolved ([2]; 40 mg/mL GCD in distilled water) was 97% and the bazedoxifene acetate dissolved ([2]; 40 mg/mL GCD in phosphate-buffered saline) was 95%. The bazedoxifene acetate dissolved ([2]; 40 mg/mL gamma-cyclodextrin in saline) was 92%.

With `Cc1c(-c2ccc(O)cc2)n(Cc2ccc(OCCN3CCCCCC3)cc2)c2ccc(O)cc12` [bazedoxifene] the starting bazedoxifene dissolved ([2]; mixture ground with GCD (50 mg:250 mg), 20 mg in 0.5 mL distilled water, sonicated 5 minutes at 45° C.) was 99%, the “pathological lesions in the lungs and trachea” value ([3]; single intranasal 0.5 mg/kg) was “did not cause pathological lesions” and the “pathological lesions in the lungs and trachea” value ([3]; single intravenous 0.5 mg/kg) was “did not cause pathological lesions”. For the same molecule, the “plasma levels (pg/mL) and AUC values (h·pg/mL)” value [4] was “very low, in majority near the limit of quantitation”, the “time to maximum plasma concentration” value ([4]; first measurement) was 10 min and the half-life (clinical) was 21 h.

Source: patent publication US20240350511A1, “TREATMENT OF COVID-19” (priority 2021, published 2024)
